What all share (assay): biochemical
Common to all, as to design: Thermo Fisher SelectScreen kinase panel: Z'-LYTE and Adapta activity, LanthaScreen binding

One assay concerns the target BRSK1 (Homo sapiens, UniProt Q8TDC3). The method, boiled down: (§1)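 GNE684 profiled at 10 µM across 221 kinases with Z'-LYTE and Adapta activity and LanthaScreen binding formats. Also screened at 10 µM against 468 kinases in KINOMEscan scanMAX binding assay.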
The next assay addresses CDK1/cyclinB (Homo sapiens, UniProt P06493). The method, boiled down: as §1
The next assay concerns the target CDK8/cyclinC (Homo sapiens, UniProt P49336). The procedure, abridged: as §1
Another assay has as its target CDK9/cyclinT1 (Homo sapiens, UniProt P50750). The method, boiled down: as §1
The target in the next assay is CLK3 (Homo sapiens, UniProt P49761). The procedure, abridged:
as §1

The target in a further assay is CSF1R (Homo sapiens, UniProt P07333). The procedure, abridged: as §1
The target of a further assay is T1, CaMKI (Homo sapiens, UniProt Q14012).
T1 construct: gene CAMK1
The method, boiled down: as §1

For another assay, the target named is T2, DCAMKL2 (Homo sapiens, UniProt Q8N568).
T2 construct: gene DCLK2
The procedure, abridged:
as §1

The next assay addresses FGFR4 (Homo sapiens, UniProt P22455). The procedure, abridged: as §1
Another assay addresses FLT4 (Homo sapiens, UniProt P35916). The procedure, abridged:
as §1

The next assay deals with LTK (Homo sapiens, UniProt P29376). The procedure, abridged: as §1
A further assay concerns the target MAP4K4 (Homo sapiens, UniProt O95819). The procedure, abridged: as §1
For the next assay, the target named is T3, MLK2 (Homo sapiens, UniProt Q02779).
T3 construct: gene MAP3K10
The method, boiled down: as §1

Another assay concerns the target MTOR (Homo sapiens, UniProt P42345). The procedure, abridged: as §1
In a further assay the target is NLK (Homo sapiens, UniProt Q9UBE8). The procedure, abridged:
as §1

The target of another assay is T4, PI3K-A (Homo sapiens, UniProt P42336).
T4 construct: gene PIK3CA; p110alpha/p85alpha
The procedure, abridged: as §1

The next assay concerns the target T5, PKC_alpha (Homo sapiens, UniProt P17252).
T5 construct: gene PRKCA
The procedure, abridged: as §1

Another assay addresses T6, PKC_beta1 (Homo sapiens, UniProt P05771).
T6 construct: gene PRKCB; isoform beta I
The procedure, abridged: as §1

In another assay the target is T7, PKC_theta (Homo sapiens, UniProt Q04759).
T7 construct: gene PRKCQ
The procedure, abridged: as §1

Another assay addresses ROCK2 (Homo sapiens, UniProt O75116). The procedure, abridged:
as §1

Another assay concerns the target TTK (Homo sapiens, UniProt P33981). The procedure, abridged:
as §1

Another assay deals with TYK2 (Homo sapiens, UniProt P29597). The method, boiled down:
as §1

For another assay, the target named is T8, p38-gamma (Homo sapiens, UniProt P53778).
T8 construct: gene MAPK12
The method, boiled down: as §1

T3 sequence (Q02779 whole entry): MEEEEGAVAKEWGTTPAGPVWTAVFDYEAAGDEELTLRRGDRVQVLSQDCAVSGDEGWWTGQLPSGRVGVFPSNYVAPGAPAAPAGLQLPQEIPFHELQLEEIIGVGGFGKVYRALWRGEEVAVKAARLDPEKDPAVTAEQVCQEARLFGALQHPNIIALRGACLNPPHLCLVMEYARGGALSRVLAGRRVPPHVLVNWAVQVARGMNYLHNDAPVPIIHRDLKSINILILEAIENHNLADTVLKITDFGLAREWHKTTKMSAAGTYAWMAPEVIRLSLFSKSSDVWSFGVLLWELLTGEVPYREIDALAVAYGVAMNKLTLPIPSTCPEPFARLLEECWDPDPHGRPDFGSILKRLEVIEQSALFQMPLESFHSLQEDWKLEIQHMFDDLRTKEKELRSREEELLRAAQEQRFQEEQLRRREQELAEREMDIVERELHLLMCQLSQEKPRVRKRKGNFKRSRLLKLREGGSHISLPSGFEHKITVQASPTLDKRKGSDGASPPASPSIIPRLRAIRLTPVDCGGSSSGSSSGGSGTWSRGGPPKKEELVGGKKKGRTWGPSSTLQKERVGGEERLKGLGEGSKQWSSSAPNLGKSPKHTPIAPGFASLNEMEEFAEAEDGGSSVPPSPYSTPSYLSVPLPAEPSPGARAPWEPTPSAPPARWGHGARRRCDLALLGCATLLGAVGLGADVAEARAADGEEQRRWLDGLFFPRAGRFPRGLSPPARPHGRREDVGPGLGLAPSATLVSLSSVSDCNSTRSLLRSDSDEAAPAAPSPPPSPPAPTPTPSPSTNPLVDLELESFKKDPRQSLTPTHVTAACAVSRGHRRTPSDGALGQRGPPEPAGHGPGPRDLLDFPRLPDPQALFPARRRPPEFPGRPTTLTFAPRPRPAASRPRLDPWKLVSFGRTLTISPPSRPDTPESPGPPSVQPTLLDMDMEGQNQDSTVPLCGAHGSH
Sequence of TTK (P33981 whole entry): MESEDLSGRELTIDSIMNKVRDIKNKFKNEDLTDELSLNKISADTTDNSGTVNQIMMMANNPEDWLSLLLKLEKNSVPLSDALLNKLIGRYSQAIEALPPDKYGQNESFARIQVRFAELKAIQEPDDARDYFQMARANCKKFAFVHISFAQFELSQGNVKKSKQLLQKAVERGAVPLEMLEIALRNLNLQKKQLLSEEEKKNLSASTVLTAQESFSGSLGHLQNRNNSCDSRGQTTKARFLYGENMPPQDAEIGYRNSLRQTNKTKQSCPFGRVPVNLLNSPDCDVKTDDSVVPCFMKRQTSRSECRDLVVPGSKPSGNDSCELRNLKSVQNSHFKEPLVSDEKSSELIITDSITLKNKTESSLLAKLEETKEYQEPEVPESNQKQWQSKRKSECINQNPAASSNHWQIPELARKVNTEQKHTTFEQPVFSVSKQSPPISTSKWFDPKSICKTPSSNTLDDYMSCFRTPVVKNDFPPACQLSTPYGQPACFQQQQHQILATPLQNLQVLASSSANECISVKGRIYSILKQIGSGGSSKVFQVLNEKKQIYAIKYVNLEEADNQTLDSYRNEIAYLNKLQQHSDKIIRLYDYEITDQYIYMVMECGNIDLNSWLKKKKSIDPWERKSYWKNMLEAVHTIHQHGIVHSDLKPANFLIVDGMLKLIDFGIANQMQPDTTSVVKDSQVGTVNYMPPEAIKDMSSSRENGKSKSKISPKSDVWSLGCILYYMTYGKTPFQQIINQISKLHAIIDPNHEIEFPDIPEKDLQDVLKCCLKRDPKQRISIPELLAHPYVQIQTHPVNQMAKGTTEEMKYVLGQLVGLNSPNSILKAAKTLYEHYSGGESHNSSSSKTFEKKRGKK
Sequence of TYK2 (P29597 whole entry): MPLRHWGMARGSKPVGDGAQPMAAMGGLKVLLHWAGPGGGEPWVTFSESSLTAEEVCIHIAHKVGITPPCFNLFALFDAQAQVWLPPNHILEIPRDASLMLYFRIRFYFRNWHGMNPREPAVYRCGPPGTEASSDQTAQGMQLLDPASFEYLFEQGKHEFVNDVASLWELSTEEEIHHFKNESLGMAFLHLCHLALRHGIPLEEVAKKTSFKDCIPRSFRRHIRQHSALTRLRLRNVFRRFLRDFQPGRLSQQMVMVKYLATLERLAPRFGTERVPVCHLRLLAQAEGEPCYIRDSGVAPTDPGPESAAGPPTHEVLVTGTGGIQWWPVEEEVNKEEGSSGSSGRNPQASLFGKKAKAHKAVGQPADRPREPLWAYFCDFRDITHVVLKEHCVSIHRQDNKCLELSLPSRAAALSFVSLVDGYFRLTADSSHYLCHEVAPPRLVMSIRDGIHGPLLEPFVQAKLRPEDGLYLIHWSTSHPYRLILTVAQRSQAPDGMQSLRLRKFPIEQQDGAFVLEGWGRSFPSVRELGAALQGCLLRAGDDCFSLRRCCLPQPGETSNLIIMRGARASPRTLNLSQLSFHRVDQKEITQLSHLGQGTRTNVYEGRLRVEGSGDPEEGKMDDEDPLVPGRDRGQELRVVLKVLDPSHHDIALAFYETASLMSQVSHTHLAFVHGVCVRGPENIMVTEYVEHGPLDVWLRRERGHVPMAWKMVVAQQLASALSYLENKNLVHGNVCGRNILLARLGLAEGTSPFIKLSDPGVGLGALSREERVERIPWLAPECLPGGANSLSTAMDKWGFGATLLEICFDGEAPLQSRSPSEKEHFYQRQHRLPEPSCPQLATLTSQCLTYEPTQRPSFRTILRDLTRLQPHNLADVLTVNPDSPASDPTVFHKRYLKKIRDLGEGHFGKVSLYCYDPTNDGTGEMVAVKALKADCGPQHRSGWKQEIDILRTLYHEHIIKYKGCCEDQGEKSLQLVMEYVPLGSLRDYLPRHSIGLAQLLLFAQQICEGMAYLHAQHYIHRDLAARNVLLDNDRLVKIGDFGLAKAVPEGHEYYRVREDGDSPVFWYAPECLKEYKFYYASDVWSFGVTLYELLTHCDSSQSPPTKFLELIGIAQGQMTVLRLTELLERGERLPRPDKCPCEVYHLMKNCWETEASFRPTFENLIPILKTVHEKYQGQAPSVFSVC
Sequence of LTK (P29376 whole entry): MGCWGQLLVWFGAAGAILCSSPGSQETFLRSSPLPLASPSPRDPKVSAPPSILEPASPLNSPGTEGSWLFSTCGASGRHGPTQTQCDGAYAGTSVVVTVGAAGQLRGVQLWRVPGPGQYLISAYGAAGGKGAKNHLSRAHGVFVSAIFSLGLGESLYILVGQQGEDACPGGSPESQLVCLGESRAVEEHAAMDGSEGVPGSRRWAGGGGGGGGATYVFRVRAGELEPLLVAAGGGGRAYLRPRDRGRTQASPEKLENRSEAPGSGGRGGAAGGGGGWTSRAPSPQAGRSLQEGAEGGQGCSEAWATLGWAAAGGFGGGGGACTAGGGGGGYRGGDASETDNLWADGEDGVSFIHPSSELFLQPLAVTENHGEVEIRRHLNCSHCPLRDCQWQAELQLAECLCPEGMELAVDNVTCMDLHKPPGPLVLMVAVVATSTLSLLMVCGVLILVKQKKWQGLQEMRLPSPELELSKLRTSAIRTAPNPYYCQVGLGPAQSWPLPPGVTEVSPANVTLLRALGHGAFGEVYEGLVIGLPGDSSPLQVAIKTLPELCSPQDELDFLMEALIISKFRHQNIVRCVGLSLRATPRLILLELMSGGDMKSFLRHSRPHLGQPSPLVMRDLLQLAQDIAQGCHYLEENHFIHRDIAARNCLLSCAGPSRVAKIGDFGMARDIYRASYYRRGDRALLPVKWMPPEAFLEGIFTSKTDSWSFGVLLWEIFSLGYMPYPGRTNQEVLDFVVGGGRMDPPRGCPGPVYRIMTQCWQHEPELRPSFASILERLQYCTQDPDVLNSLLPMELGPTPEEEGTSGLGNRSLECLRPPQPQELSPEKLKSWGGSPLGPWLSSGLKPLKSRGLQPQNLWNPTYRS
Sequence of NLK (Q9UBE8 whole entry): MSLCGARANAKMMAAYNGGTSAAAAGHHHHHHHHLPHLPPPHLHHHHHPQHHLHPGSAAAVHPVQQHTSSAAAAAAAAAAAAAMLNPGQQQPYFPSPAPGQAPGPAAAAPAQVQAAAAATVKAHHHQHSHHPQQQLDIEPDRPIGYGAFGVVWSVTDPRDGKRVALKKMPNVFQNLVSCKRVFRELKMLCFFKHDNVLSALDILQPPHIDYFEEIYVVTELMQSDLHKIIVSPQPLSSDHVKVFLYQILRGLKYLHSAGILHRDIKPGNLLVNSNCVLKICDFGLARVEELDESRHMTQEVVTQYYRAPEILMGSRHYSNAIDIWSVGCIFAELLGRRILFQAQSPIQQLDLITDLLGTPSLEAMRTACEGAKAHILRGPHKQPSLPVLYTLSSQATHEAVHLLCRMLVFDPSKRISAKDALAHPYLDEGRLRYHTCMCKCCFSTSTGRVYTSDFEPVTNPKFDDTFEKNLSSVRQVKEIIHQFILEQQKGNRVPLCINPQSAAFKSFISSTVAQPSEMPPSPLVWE
T7 sequence (Q04759 whole entry): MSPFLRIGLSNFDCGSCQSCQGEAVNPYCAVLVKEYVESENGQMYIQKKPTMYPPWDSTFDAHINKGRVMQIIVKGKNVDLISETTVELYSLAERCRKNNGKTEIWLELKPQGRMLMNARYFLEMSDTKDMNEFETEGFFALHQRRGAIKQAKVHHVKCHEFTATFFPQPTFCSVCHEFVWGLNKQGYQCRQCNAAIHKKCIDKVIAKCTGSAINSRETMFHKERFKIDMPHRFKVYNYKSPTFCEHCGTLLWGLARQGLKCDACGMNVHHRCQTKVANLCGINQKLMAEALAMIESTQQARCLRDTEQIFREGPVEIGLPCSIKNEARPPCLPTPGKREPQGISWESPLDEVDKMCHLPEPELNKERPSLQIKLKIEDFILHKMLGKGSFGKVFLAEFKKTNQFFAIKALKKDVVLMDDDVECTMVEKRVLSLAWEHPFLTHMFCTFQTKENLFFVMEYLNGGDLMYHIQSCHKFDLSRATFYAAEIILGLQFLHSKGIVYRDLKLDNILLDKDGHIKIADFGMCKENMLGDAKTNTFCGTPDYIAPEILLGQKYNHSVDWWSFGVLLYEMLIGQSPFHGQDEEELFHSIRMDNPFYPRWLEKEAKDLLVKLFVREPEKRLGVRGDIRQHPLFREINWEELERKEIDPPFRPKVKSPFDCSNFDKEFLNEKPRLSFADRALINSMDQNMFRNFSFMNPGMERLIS

In the case of `COc1cc2c(cn1)N(C)C(=O)[C@@H](NC(=O)c1nc3n(n1)[C@H](c1ccccc1)CC3)CC2` [GNE684, (S)-N-((S)-7-methoxy-1-methyl-2-oxo-2,3,4,5-tetrahydro-1H-pyrido[3,4-b]azepin-3-yl)-5-phenyl-6,7-dihydro-5H-pyrrolo[1,2-b][1,2,4]triazole-2-carboxamide], the inhibition at 10 µM on BRSK1 was 2.5%; at CDK1/cyclinB, -0.5%; at CDK8/cyclinC, 4.5%; on CDK9/cyclinT1 it was 9%; at CLK3 it was 1.5%; on CSF1R, 2%. Also, the inhibition at 10 µM on CaMKI was -5.5%; at DCAMKL2, 2%; at FGFR4 it was -6.5%; on FLT4, 14%; on LTK, 7.5%; on MAP4K4 it was 11.5%. For the same compound, the inhibition at 10 µM on MLK2 is 0%; at MTOR, 2%; at NLK, -0.5%; at PI3K-A, 16%; at PKC_alpha, 3%; at PKC_beta1, 3.5%. The inhibition at 10 µM on PKC_theta is -5%; on ROCK2, 1.5%; on TTK it was -2.5%; on TYK2 it was 3.5%; on p38-gamma, 7%.

As a reminder, the inhibition is the drop in the measured response relative to a control, in per cent.

The values are drawn from article PMC7206119, “RIP1 inhibition blocks inflammatory diseases but not tumor growth or metastases” (Cell Death and Differentiation, 2019).
